Organism: Rattus norvegicus
Test: DrugMatrix - Regimen: Daily Repeat
Assay type: toxicity, organism-based, Sprague-Dawley
Set-up: regimen Daily Repeat, gender Male, age 6-8 weeks
Conditions: in vivo, po, route oral GAVAGE, vehicle 100 % WATER; for ABSOLUTE BASOPHIL / ABSOLUTE EOSINOPHIL / ABSOLUTE LYMPHOCYTE / ABSOLUTE MONOCYTE / ABSOLUTE SEGMENTED NEUTROPHIL / BASOPHIL / EOSINOPHIL / ERYTHROCYTE COUNT / HEMATOCRIT / HEMOGLOBIN / LEUKOCYTE COUNT / LYMPHOCYTE / MEAN CORPUSCULAR HEMOGLOBIN / MEAN CORPUSCULAR HEMOGLOBIN CONCENTRATION / MEAN CORPUSCULAR VOLUME / MONOCYTE / NEUTROPHIL / NUCLEATED RED BLOOD CELLS / PLATELET COUNT: tissue Blood; for ALANINE AMINOTRANSFERASE / ALBUMIN / ALKALINE PHOSPHATASE / ASPARTATE AMINOTRANSFERASE / BLOOD UREA NITROGEN / CARBON DIOXIDE / CHLORIDE / CHOLESTEROL / CREATINE PHOSPHOKINASE / CREATININE / GLUCOSE / LACTATE DEHYDROGENASE / LIPASE / PHOSPHORUS / POTASSIUM / SODIUM / TOTAL BILIRUBIN / TOTAL PROTEIN / URIC ACID: tissue Plasma
[1] = 100 mg/kg, 120 h, dose level Low, time 5 day
[2] = 852 mg/kg, 72 h, dose level High, time 3 day
[3] = 852 mg/kg, 120 h, dose level High, time 5 day

CC(C)(S)[C@@H](N)C(=O)O [PENICILLAMINE]
ABSOLUTE BASOPHIL [1]: 0 CELLS/uL
ABSOLUTE EOSINOPHIL [1]: 0 CELLS/uL
ABSOLUTE LYMPHOCYTE [1]: 6617.67 CELLS/uL
ABSOLUTE MONOCYTE [1]: 110.33 CELLS/uL
ABSOLUTE SEGMENTED NEUTROPHIL [1]: 338.67 CELLS/uL
BASOPHIL [1]: 0%
EOSINOPHIL [1]: 0%
ERYTHROCYTE COUNT [1]: 5.47 x10E6/uL
HEMATOCRIT [1]: 34.93%
HEMOGLOBIN [1]: 13.8 G/DL
LEUKOCYTE COUNT [1]: 7.07 x10E3/uL
LYMPHOCYTE [1]: 93.33%
MEAN CORPUSCULAR HEMOGLOBIN [1]: 25.27 pg
MEAN CORPUSCULAR HEMOGLOBIN CONCENTRATION [1]: 39.57 G/DL
MEAN CORPUSCULAR VOLUME [1]: 63.93 fL
MONOCYTE [1]: 1.67%
NEUTROPHIL [1]: 5%
NUCLEATED RED BLOOD CELLS [1]: 0 /100WBC
PLATELET COUNT [1]: 1075.33 x10E3/uL
ALANINE AMINOTRANSFERASE [1]: 51.33 u/L
ALBUMIN [1]: 4.07 G/DL
ALKALINE PHOSPHATASE [1]: 310.33 u/L
ASPARTATE AMINOTRANSFERASE [1]: 74.33 u/L
BLOOD UREA NITROGEN [1]: 13.67 mg/dL
CARBON DIOXIDE [1]: 34 mmol/L
CHLORIDE [1]: 99.67 MEQ/L
CHOLESTEROL [1]: 68.67 mg/dL
CREATINE PHOSPHOKINASE [1]: 197.67 u/L
CREATININE [1]: 0.13 mg/dL
GLUCOSE [1]: 152.67 mg/dL
LACTATE DEHYDROGENASE [1]: 129 u/L
LIPASE [1]: 9.67 u/L
PHOSPHORUS [1]: 10.77 mg/dL
POTASSIUM [1]: 6.13 MEQ/L
SODIUM [1]: 144.33 MEQ/L
TOTAL BILIRUBIN [1]: 0.17 mg/dL
TOTAL PROTEIN [1]: 5.83 G/DL
URIC ACID [1]: 1.17 mg/dL
ABSOLUTE BASOPHIL [2]: 0 CELLS/uL
ABSOLUTE EOSINOPHIL [2]: 0 CELLS/uL
ABSOLUTE LYMPHOCYTE [2]: 6326 CELLS/uL
ABSOLUTE MONOCYTE [2]: 89.33 CELLS/uL
ABSOLUTE SEGMENTED NEUTROPHIL [2]: 351.33 CELLS/uL
BASOPHIL [2]: 0%
EOSINOPHIL [2]: 0%
ERYTHROCYTE COUNT [2]: 5.64 x10E6/uL
HEMATOCRIT [2]: 34.8%
HEMOGLOBIN [2]: 13.1 G/DL
LEUKOCYTE COUNT [2]: 6.77 x10E3/uL
LYMPHOCYTE [2]: 93.67%
MEAN CORPUSCULAR HEMOGLOBIN [2]: 23.23 pg
MEAN CORPUSCULAR HEMOGLOBIN CONCENTRATION [2]: 37.67 G/DL
MEAN CORPUSCULAR VOLUME [2]: 61.73 fL
MONOCYTE [2]: 1.33%
NEUTROPHIL [2]: 5%
NUCLEATED RED BLOOD CELLS [2]: 0 /100WBC
PLATELET COUNT [2]: 1143.33 x10E3/uL
ALANINE AMINOTRANSFERASE [2]: 54.33 u/L
ALBUMIN [2]: 4.2 G/DL
ALKALINE PHOSPHATASE [2]: 349 u/L
ASPARTATE AMINOTRANSFERASE [2]: 71.33 u/L
BLOOD UREA NITROGEN [2]: 14 mg/dL
CARBON DIOXIDE [2]: 30.33 mmol/L
CHLORIDE [2]: 102.67 MEQ/L
CHOLESTEROL [2]: 88.33 mg/dL
CREATINE PHOSPHOKINASE [2]: 242 u/L
CREATININE [2]: 0.12 mg/dL
GLUCOSE [2]: 145.67 mg/dL
LACTATE DEHYDROGENASE [2]: 117.67 u/L
LIPASE [2]: 10 u/L
PHOSPHORUS [2]: 9.27 mg/dL
POTASSIUM [2]: 5.88 MEQ/L
SODIUM [2]: 147.53 MEQ/L
TOTAL BILIRUBIN [2]: 0.17 mg/dL
TOTAL PROTEIN [2]: 6.2 G/DL
URIC ACID [2]: 0.87 mg/dL
ABSOLUTE BASOPHIL [3]: 0 CELLS/uL
ABSOLUTE EOSINOPHIL [3]: 0 CELLS/uL
ABSOLUTE LYMPHOCYTE [3]: 6605.67 CELLS/uL
ABSOLUTE MONOCYTE [3]: 23.67 CELLS/uL
ABSOLUTE SEGMENTED NEUTROPHIL [3]: 604 CELLS/uL
BASOPHIL [3]: 0%
EOSINOPHIL [3]: 0%
ERYTHROCYTE COUNT [3]: 5.48 x10E6/uL
HEMATOCRIT [3]: 33.73%
HEMOGLOBIN [3]: 13.27 G/DL
LEUKOCYTE COUNT [3]: 7.23 x10E3/uL
LYMPHOCYTE [3]: 91.33%
MEAN CORPUSCULAR HEMOGLOBIN [3]: 24.23 pg
MEAN CORPUSCULAR HEMOGLOBIN CONCENTRATION [3]: 39.33 G/DL
MEAN CORPUSCULAR VOLUME [3]: 61.63 fL
MONOCYTE [3]: 0.33%
NEUTROPHIL [3]: 8.33%
NUCLEATED RED BLOOD CELLS [3]: 0 /100WBC
PLATELET COUNT [3]: 1213.67 x10E3/uL
ALANINE AMINOTRANSFERASE [3]: 35 u/L
ALBUMIN [3]: 4.23 G/DL
ALKALINE PHOSPHATASE [3]: 283.33 u/L
ASPARTATE AMINOTRANSFERASE [3]: 59.33 u/L
BLOOD UREA NITROGEN [3]: 13.33 mg/dL
CARBON DIOXIDE [3]: 33.33 mmol/L
CHLORIDE [3]: 99.67 MEQ/L
CHOLESTEROL [3]: 61.33 mg/dL
CREATINE PHOSPHOKINASE [3]: 202.33 u/L
CREATININE [3]: 0.12 mg/dL
GLUCOSE [3]: 131.67 mg/dL
LACTATE DEHYDROGENASE [3]: 133 u/L
LIPASE [3]: 9.67 u/L
PHOSPHORUS [3]: 10.7 mg/dL
POTASSIUM [3]: 6.12 MEQ/L
SODIUM [3]: 144.2 MEQ/L
TOTAL BILIRUBIN [3]: 0.2 mg/dL
TOTAL PROTEIN [3]: 6.07 G/DL
URIC ACID [3]: 1.23 mg/dL

— ChEMBL document CHEMBL3885881, “DrugMatrix”
